{"source": "paper PMC7064771", "about": "“Repurposed Drugs That Block the Gonococcus-Complement Receptor 3 Interaction Can Prevent and Cure Gonococcal Infection of Primary Human Cervical Epithelial Cells” (mBio, 2020)", "key": {"N. gonorrhoeae strains": {"system": "N. gonorrhoeae strains", "experiment": "Well diffusion assay", "format": "cell-based, Neisseria gonorrhoeae", "details": "100 pM to 100 μM in wells, overnight", "protocol": "Well diffusion assays were performed essentially as described previously ([56]). Briefly, N. gonorrhoeae strains were spread uniformly across the surfaces of GC agar plates at a culture density of 10^7 bacteria per ml. Wells were then punctured within the agar surface to which carbamazepine or methyldopa (100 pM to 100 μM), 0.2 μg/ml ceftriaxone, 10 μg/ml ciprofloxacin, or 1% DMSO (vehicle control) was added. Following an overnight incubation (37°C, 5% CO2), inhibition of N. gonorrhoeae growth was measured as the diameter (in millimeters) of the area of clearing surrounding (and inclusive of) each well on each agar plate, i.e., the zone of inhibition (ZOI). For agar plates in which a ZOI was not visible, data were recorded as the diameter of the well (6 mm). Assays were performed in triplicates on 3 separate occasions. Statistical significance of data obtained was determined using a Student's t test."}, "[1]": {"system": "N. gonorrhoeae infection of Pex cells", "protocol": "Infection studies were performed as previously described with modification using a multiplicity of infection of 100 ([44]). To establish infection before treatment, Pex cells were challenged with N. gonorrhoeae for 90 min. The infection medium was then removed, the cells were rinsed thrice, and fresh medium containing 0.1% DMSO (vehicle control), carbamazepine (100 pM to 100 μM), methyldopa (100 pM to 100 μM), or ceftriaxone (0.1 μg/ml or 0.5 μg/ml, positive control) was added. Infections then proceeded for an additional 24 h or 48 h, after which, the infection medium was removed. Pex cell monolayers were subsequently lysed, serial dilutions of the Pex cell lysates were plated, and viable gonococci were enumerated by counting CFU after 48 h of incubation (37°C, 5% CO2). For sequential infection assays, viable bacterial colonies that survived a treatment assay were harvested from the enumeration (CFU) plates and used to inoculate new Pex cell monolayers. For these sequential assays, each infection (the original infection or the infection with bacteria that had survived the original infection) proceeded for 24 h. Pex cells were then processed, and bacteria were enumerated, as described above. For all assays, the percentage of N. gonorrhoeae that survived carbamazepine, methyldopa, or ceftriaxone treatment was determined as a function of bacteria that survived DMSO treatment (set to 100%). All assays were performed in triplicates on 3 separate occasions. A nonparametric ANOVA was used to determine the statistical significance of bacterial survival."}, "[2]": {"system": "N. gonorrhoeae adherence to CHO-neo cells", "experiment": "Fluorometric adherence assay, CHO-neo cells", "format": "cell-based, Chinese hamster", "details": "1-h infection; cells do not express CR3", "protocol": "(§1) Fluorometric adherence assays were performed essentially as described previously ([36]). In brief, N. gonorrhoeae MS11 gfp was used to challenge (1 h) Pex or CHO cells simultaneously with peptide or drug competitor. Infected (devoid of peptide or drug) and uninfected (with peptide, drug, or dimethyl sulfoxide [DMSO] vehicle) control cell assays were treated in parallel with competitive peptide/drug inhibition assays. Fluorescence (485 nm excitation, 528 nm emission) intensity, corresponding to bacterial adherence, was recorded using a Synergy HT multimode microplate reader (BioTek Instruments, Winooski, VT, USA). Blank wells, devoid of Pex or CHO cells, were inoculated with bacteria and served as a control for nonspecific binding. Each assay was performed in triplicates on 3 separate occasions. Peptides used are described in Table S1. A nonparametric analysis of variance (ANOVA) was used to determine the statistical significance of the calculated mean of bacterial adherence."}, "[3]": {"details": "orally administered, prescribed use; cited from earlier work"}, "[4]": {"system": "N. gonorrhoeae adherence to CHO-CR3 cells", "experiment": "Fluorometric adherence assay, CHO-CR3 cells", "format": "cell-based, Chinese hamster", "details": "1-h infection with GFP-expressing N. gonorrhoeae, competitor added simultaneously", "protocol": "as §1"}, "human rI-domain [5]": {"biological_target": "T1, human rI-domain (Homo sapiens, UniProt P11215)", "T1 construct": "Recombinant human and mouse I-domain proteins were made and purified as previously described; made in house", "T1 sequence (P11215 150-328 limits assumed)": "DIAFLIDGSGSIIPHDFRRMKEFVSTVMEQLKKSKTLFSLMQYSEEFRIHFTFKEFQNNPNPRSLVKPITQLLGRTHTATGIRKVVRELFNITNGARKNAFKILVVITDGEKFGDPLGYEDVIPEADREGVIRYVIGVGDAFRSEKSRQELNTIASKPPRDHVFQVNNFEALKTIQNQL", "experiment": "Repurposed drug SPR against human CR3 I-domain (single-cycle kinetics)", "details": "10 nM to 0.625 nM, read-out: KD, binding to human rI-domain", "protocol": "Human rI-domain was immobilized onto a CM5 sensor chip with a blank control flow cell as described above. A combination of two FDA-approved drug libraries, Microsource-CPOZ (2,400 drugs) and ML Drug (741 drugs), was purchased from Compounds Australia. […] A single-concentration injection screen (yes/no) binding assay was performed. Binding was determined based on the response unit shift (equal to the molecular weight-corrected response units of the positive-control glycan) of the stability of the binding phase of the dissociation cycle. […] For carbamazepine and methyldopa, saturation occurred between 1.6 nM and 8 nM, and so a new concentration range (10 nM to 0.625 nM) was tested. […] All SPR sensorgrams and result plots described above were analyzed with Biacore S200 evaluation software (GE Healthcare Life Sciences). A literature review was used to evaluate the remaining drugs for known long-term safety in humans and known therapeutic concentrations."}, "human rI-domain [6]": {"biological_target": "T1, human rI-domain", "experiment": "Direct competition SPR, drug versus N. gonorrhoeae MS11 pilin", "format": "binding", "details": "drug and pilin at 1 μM"}, "[7]": {"system": "N. gonorrhoeae adherence to Pex cells", "experiment": "Fluorometric adherence assay, Pex cells", "format": "cell-based, human", "details": "1-h infection with GFP-expressing N. gonorrhoeae, competitor added simultaneously", "protocol": "as §1"}}, "note": "pKd: −log10 of the molar value. Entries after “also recorded” stand apart in the source; their conditions may differ.", "data": [{"smiles": "NC(=O)N1c2ccccc2C=Cc2ccccc21", "note": "[carbamazepine]", "values": [{"measurement": "Effect on gonococcal viability in the absence of Pex cells (zone of inhibition)", "setting": "N. gonorrhoeae strains", "result": "neither carbamazepine nor methyldopa had an effect; also recorded: no effect"}, {"measurement": "N. gonorrhoeae strain MS11 survival", "setting": "[1]; 24 h posttreatment, 100 pM to 100 μM", "result": "dose-dependent reductions"}, {"measurement": "Numbers of viable gonococci, low-passage-number gonococcal isolates", "setting": "[1]; 24 h posttreatment, established Pex cell infections", "result": "significant reductions"}, {"measurement": "Killing of survivor population in second sequential infection", "setting": "[1]; bacteria harvested from a 24-h treated infection, re-used and treated again for 24 h", "result": 100, "unit": "%"}, {"measurement": "Efficacy in treating multidrug-resistant gonococci compared with ceftriaxone", "setting": "[1]; panel of multidrug-resistant N. gonorrhoeae isolates", "result": "more effective than ceftriaxone"}, {"measurement": "Gonococcal adherence to CHO-neo cells (fluorescence)", "setting": "[2]", "result": "no effect; also recorded: but not to CHO-neo cells"}, {"measurement": "Concentration in serum", "setting": "[3]", "result": "~17", "unit": "µM"}, {"measurement": "Gonococcal adherence to CHO-CR3 cells (fluorescence)", "setting": "[4]", "result": "dose-dependent decrease; also recorded: decreased in a dose-dependent manner"}, {"measurement": "pKd", "setting": "human rI-domain [5]", "result": 8.67}, {"measurement": "Blocking of the interaction of N. gonorrhoeae MS11 pilin with rCR3 or rI-domain", "setting": "human rI-domain [6]", "result": "completely blocked"}, {"measurement": "Gonococcal adherence to Pex cells (fluorescence)", "setting": "[7]", "result": "dose-dependent decrease; also recorded: decreased in a dose-dependent manner"}]}]}
